Source: publication PMC7613620, “Reaction hijacking of tyrosine tRNA synthetase as a whole-of-life-cycle antimalarial strategy” (Science (New York, N.Y.), 2022)

Experiments:
[1] = system: protein translation in P. falciparum (Cam3.II-rev) schizonts; assay: Protein translation assay (O-propargyl-puromycin incorporation); assay type: cell-based, Plasmodium falciparum; settings: Plasmodium falciparum, 3 h, read-out: IC50 (Translation), schizont stage Cam3.II-rev, 3 h exposure, OPP incorporation
Experimental: 723 then fixed for 10 minutes (4% formaldehyde/0.02% glutaraldehyde in PBS). The click reaction was
724 performed for 1 h in the presence of CuSO4 (0.1 mM), THPTA (0.5 mM) and sodium ascorbate (5 mM) to
725 bring about azide-alkyne cycloaddition to Alexa Fluor 488 azide (0.1 µM). Flow cytometry was performed
726 using the FITC and Cy™5.5 channels to detect the Alexa Fluor 488 and PI, respectively.
(§1) 729 Cam 3.II_Rev (25) trophozoite-infected RBCs (25-30 h p.i.) were incubated with inhibitor for 3 h at 10%
(§2) 730 hematocrit and 5% parasitemia. The RBC pellet was washed 3 x in PBS + cOmplete. Cells were centrifuged
(§3) 731 at 380 x g for 5 min and the pelleted cells lysed by resuspension in PBS + 0.05% saponin for 5 min on ice.

Solubility = assay type: physicochemical
[2] = system: P. falciparum Dd2 PfYRSS234C mutant lines; assay: 72-h sensitivity of CRISPR-edited PfYRSS234C clones; assay type: cell-based, Plasmodium falciparum; settings: for IC50: Plasmodium falciparum, DD2, 72 h, 72-h exposure
Experimental: 700 the drug plate. Lowest drug treatment and a lethal dose of chloroquine (200 nM) served as reference
701 controls. Growth inhibition was analysed after 72 h using the Renilla-Glo(R) Luciferase Assay System (ref
702 no E2750 Promega) and the GloMax® Discover Multimode Microplate Reader (Promega), and IC50 values
703 were obtained from corrected dose-response curves using GraphPad Prism (version 8; GraphPad Software).
705 Generation of PfYRSS234C transfectants
706 CRISPR/Cas9 was used to generate parasites encoding the S234C mutation in exon 2 of PfYRS, as shown
707 in Suppl Figure 6. Two guide RNAs (gRNA1: […] and gRNA2:
708 […]) were selected using Benchling (benchling.com), and cloned into the
709 pDC2-coCas9-gRNA plasmid essentially as described previously (58). A donor template of 645 bp,
710 encompassing the majority of the 708 bp exon 2, was synthesized (ThermoFisher) and cloned into the
711 AatII/EcoRI sites of both the pDC2-coCas9-gRNA1 and pDC2-coCas9-gRNA2 plasmids. In addition to
712 the TCC>TGC (S234C) mutation, additional silent shield mutations were introduced to prevent gRNA-
713 Cas9 complex binding, as shown in Suppl Figure 6. Ring-stage P. falciparum parasites (Dd2 strain) at 10%
714 parasitemia (150 µL of packed cells) were transfected with 50 µg of plasmid DNA using a BioRad Gene
715 Pulser II (310 V, 950 µF), and selected with 5 nM WR99210 (Jacobus Pharmaceuticals) for 8 days, after
716 which culture was continued without drug pressure until transfectants were obtained. Clones of the
717 PfYRSS234C mutant parasites were isolated by limiting dilution and verified by Sanger sequencing. […]
as §1, §2, §3

[3] = target: ubiquitin activating enzyme (UAE) (Homo sapiens, UniProt P22314); assay: E1-E2 transthiolation HTRF assay, UAE; assay type: biochemical
Source text: 592 E1-E2 Transthiolation Assays
593 An Homogeneous Time-Resolved Fluorescence (HTRF) enzyme assay was employed to evaluate
594 compound activity against ATG7 as previously described (11). In this assay, a Flag-tagged ATG8 homolog
595 (GABA type A receptor-associated protein; GABARAP) is activated by ATG7 and then transthiolated to a
596 GST-tagged E2 (ATG3). The product of the enzyme reaction, Flag-GABARAP-ATG3-GST, is quantified
597 by measuring FRET between Europium-Cryptate labelled monoclonal anti-Flag M2 (CisBio International,
598 Cat# 61FG2KLB) and PHYCOLINK goat anti-GST allophycocyanin (Prozyme, PJ252p1). The activation
599 and transthiolation of ubiquitin by Ubiquitin Activating Enzyme, activation and transthiolation of NEDD8
600 by NEDD8 Activating Enzyme. […]
606 Compounds were incubated with mature stage V gametocytes ([…], kind gift from Professor Chris Janse
607 at Leiden University Medical Center (LUMC), the Netherlands) for 48 hours in 384 well plates before
608 gamete formation was triggered by a drop in temperature and addition of xanthurenic acid. […]
611 Multiple data sets using different gametocyte cultures were collected on each of two separate days.
613 Activity against exoerythrocytic stages
614 Primary human hepatocytes (H1500.H15B+ Lot No. HC10-10 Cryopreserved human hepatocytes) […]

ubiquitin activating enzyme (UAE), sequence (P22314 whole entry): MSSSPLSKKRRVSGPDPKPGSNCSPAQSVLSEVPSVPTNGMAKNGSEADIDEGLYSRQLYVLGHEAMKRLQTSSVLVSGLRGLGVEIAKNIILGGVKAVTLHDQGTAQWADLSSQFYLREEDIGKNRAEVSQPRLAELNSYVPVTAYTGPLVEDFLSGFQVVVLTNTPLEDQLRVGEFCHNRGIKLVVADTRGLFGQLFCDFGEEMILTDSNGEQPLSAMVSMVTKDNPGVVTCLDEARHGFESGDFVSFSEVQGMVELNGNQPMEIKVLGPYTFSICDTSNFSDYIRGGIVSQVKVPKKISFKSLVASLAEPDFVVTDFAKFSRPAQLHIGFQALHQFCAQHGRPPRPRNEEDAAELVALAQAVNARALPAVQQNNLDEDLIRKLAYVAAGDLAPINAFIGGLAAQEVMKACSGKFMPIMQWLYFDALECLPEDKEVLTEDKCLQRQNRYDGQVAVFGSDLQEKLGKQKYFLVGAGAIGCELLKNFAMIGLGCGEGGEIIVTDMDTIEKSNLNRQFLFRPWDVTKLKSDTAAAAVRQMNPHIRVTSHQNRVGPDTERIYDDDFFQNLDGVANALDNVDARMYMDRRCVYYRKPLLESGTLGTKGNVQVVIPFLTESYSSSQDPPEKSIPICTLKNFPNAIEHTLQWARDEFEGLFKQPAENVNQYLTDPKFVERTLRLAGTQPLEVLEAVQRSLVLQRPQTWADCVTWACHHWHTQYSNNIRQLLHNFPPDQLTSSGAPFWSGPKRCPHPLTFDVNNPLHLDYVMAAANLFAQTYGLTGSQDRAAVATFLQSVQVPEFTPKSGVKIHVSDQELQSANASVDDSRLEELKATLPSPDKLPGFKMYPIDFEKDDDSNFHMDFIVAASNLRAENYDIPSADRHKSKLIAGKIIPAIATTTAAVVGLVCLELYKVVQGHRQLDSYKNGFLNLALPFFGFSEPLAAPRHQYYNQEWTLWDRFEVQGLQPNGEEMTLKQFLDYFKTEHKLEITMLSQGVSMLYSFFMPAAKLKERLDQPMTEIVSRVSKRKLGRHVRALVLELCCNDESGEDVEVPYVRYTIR

## Nc1ncnc2c1c(OC(F)F)nn2[C@@H]1O[C@H](COS(N)(=O)=O)[C@@H](O)[C@H]1O [ML901]
[1]
  IC50: 65 nM
Solubility
  solubility: > 200 µM
[2]; Dd2 parent transfectants harboring PfYRSS234C
  decreased sensitivity of PfYRSS234C transfectants: 10 fold
[2]; Mutant E12 (PfYRSS234C)
  IC50: 22 ± 1 nM
[2]; Mutant F5 (PfYRSS234C)
  IC50: 22 ± 3 nM
[2]; Mutant G12 (PfYRSS234C)
  IC50: 20 ± 1 nM
[3]
  IC50: > 1000 nM
